Results reported in patent US7282595B2, “Antitumor benzoylsulfonamides” (Eli Lilly and Company, priority 2003, dated 2007).

tested on: Human HCT116 colon carcinoma cells; experiment: HCT116 Colon Carcinoma Cell Growth Inhibition; format: cell-based; conditions: 72 hr exposure, WST-1 growth fraction
Method: HCT116 Colon Carcinoma Cell Growth Inhibition
Human HCT116 colon carcinoma cells were grown monolayer culture in RPMI 1640 medium supplemented with 10% fetal bovine serum and 1% penicillin-streptomycin (GibcoBRL, Grand Island, N.Y.). HCT116 cells in exponential growth phase were exposed to various concentrations of the test compounds at 37° C. for 72 hr in 5% carbon dioxide/air. After exposure to the agent, the cells were washed with 0.9% phosphate buffered saline. Growth inhibition was determined using WST-1 cell proliferation reagent as described above. The results are expressed as the growth fraction of treated cells compared with control cultures. Representative compounds of the present invention were tested for efficacy against the human colon HCT116 tumor cells.

Compound	IC50
O=C(NS(=O)(=O)c1ccc2c(c1)OCCO2)c1ccc(Cl)cc1Cl [Example 23, N-[2,4-dichlorobenzoyl]-2,3-dihydrobenzo[1,4]dioxane-6-sulfonamide]	4.1 µM
N-[2,4-dichlorobenzoyl]-tetrahydrobenzofuran-5-sulfonamide [Example 24]	40 µM

same assay, conditions: Homo sapiens, HCT-116, 72 hr exposure, WST-1 growth fraction

Compound	IC50
Cc1cc(Cl)ccc1C(=O)NS(=O)(=O)c1ccc2c(c1)CCO2 [Example 1, N-[4-chloro-2-methylbenzoyl]-2,3-dihydrobenzofuran-5-sulfonamide]	9.6 µM
O=C(NS(=O)(=O)c1ccc2c(c1)OCO2)c1ccc(Cl)cc1Br [Example 2, N-[4-chloro-2-bromobenzoyl]-benzo[1,3]dioxole-5-sulfonamide]	3.9 µM
Cc1cc(Cl)ccc1C(=O)NS(=O)(=O)c1ccc2c(c1)OCO2 [Example 3, N-[4-chloro-2-methylbenzoyl]-benzo[1,3]dioxole-5-sulfonamide]	6.4 µM
Cc1cc(Br)ccc1C(=O)NS(=O)(=O)c1ccc2c(c1)OCO2 [Example 4, N-[4-bromo-2-methylbenzoyl]-benzo[1,3]dioxole-5-sulfonamide]	7.5 µM
Cc1ccc(C(=O)NS(=O)(=O)c2ccc3c(c2)OCO3)c(Br)c1 [Example 5, N-[4-methyl-2-bromobenzoyl]-benzo[1,3]dioxole-5-sulfonamide]	8.5 µM
O=C(NS(=O)(=O)c1ccc2c(c1)OCO2)c1ccc(Br)cc1Br [Example 6, N-[2,4-dibromobenzoyl]-benzo[1,3]dioxole-5-sulfonamide]	4.6 µM
O=C(NS(=O)(=O)c1ccc2c(c1)OCO2)c1ccc(Br)cc1Cl [Example 7, N-[4-bromo-2-chlorobenzoyl]-benzo[1,3]dioxole-5-sulfonamide]	13.9 µM
O=C(NS(=O)(=O)c1cc2ccccc2s1)c1ccc(Cl)cc1Cl [Example 16, N-[2,4-dichlorobenzoyl]-benzo[b]thiophene-2-sulfonamide]	21.8 µM
O=C(NS(=O)(=O)c1cc2ccccc2o1)c1ccc(Cl)cc1Cl [Example 17, N-[2,4-dichlorobenzoyl]-benzofuran-2-sulfonamide]	19.8 µM
O=C(NS(=O)(=O)c1ccc2ncsc2c1)c1ccc(Cl)cc1Cl [Example 18, N-[2,4-dichlorobenzoyl]-benzothiazole-6-sulfonamide]	14.2 µM
O=C(NS(=O)(=O)c1ccc2c(c1)OCO2)c1ccc(Cl)cc1Cl [Example 25, N-[2,4-dichlorobenzoyl]-benzo[1,3]dioxole-5-sulfonamide]	2.1 µM
CN1CCc2ccc(S(=O)(=O)NC(=O)c3ccc(Cl)cc3Cl)cc21 [Example 26, N-[2,4-dichlorobenzoyl]-1-methyl-2,3-dihydro-1H-indole-6-sulfonamide]	10 µM
O=C(NS(=O)(=O)c1ccc2c(c1)CC=C2)c1ccc(Cl)cc1Cl [Example 27, N-[2,4-dichlorobenzoyl]-3H-indene-5-sulfonamide]	3.2 µM
O=C(NS(=O)(=O)c1ccc2c(c1)CCC2)c1ccc(Cl)cc1Cl [Example 28, N-[2,4-dichlorobenzoyl]-indane-5-sulfonamide]	3.2 µM
O=C(NS(=O)(=O)c1ccc2c(c1)CCC2=O)c1ccc(Cl)cc1Cl [Example 29, N-[2,4-dichlorobenzoyl]-1-oxo-indane-5-sulfonamide]	26.2 µM
Cn1c(S(=O)(=O)NC(=O)c2ccc(Cl)cc2Cl)cc2ccccc21 [Example 31, N-[2,4-dichlorobenzoyl]-1-methyl-indole-2-sulfonamide]	4.6 µM
